Test results as given in US20210278408A1, “METHODS OF TREATMENT OF CANCER WITH SUBSTITUTED PYRROLE AND PYRAZOLE COMPOUNDS AND DIAGNOSIS OF CANCERS SUSCEPTIBLE TO TREATMENT WITH SUBSTITUTED PYRROLE AND PYRAZOLE COMPOUNDS” (Bantam Pharmaceutical, LLC, priority 2018, published 2021).
Like-named read-outs stand apart in the source and are kept apart here.

System: 407 cancer cell lines
Experiment: Cell viability of cancer cell lines (IC50), CellTiter-Glo Viability Assay, 96 h
Type: cell-based
Settings: for IC50: read-out: Absolute IC50
Protocol: Viability was determined by using the 50% inhibitory concentration (IC50) as determined with the CellTiter-Glo® Viability Assay (Promega).
Experiments were initiated by first thawing and equilibrating the CellTiter-Glo® Buffer to room temperature. The lyophilized CellTiter-Glo® Substrate was also equilibrated to room temperature. The lyophilized substrate was reconstituted with the CellTiter-Glo® buffer to form the CellTiter-Glo® Reagent.
Cells were harvested during the logarithmic growth period, counted, and the cell concentration adjusted to 4.44×10^4 cells/mL using culture medium.
Cells were allowed to grow overnight and the following day, the TO reading was obtained by adding 10 μL culture medium to each well of Plate A. The plate was allowed to equilibrate at room temperature for thirty minutes, after which 50 μL CellTiter-Glo® reagent was added to each well. The contents were mixed for 5 min on an orbital shaker to induce cell lysis. Plates were incubated for 20 minutes to stabilize the luminescent signal and the TO luminescence recorded.
Test plate B was incubated for 96 h in the humidified incubator at 37° C. with 5% CO2.
Following the incubation, the plate was equilibrated at room temperature for thirty minutes. CellTiter-Glo® (50 μL) was added to each well of the plate and contents mixed for five minutes on an orbital shaker to induce cell lysis. The luminescent signal was allowed to stabilize at room temperature for 20 minutes and the luminescence recorded.
IC50 (EC50) was calculated using a dose-response curve, fitted using a nonlinear regression model with a sigmoidal dose response. Survival rate was calculated using the formula:
The Surviving rate (%)=(LumTest article−LumMedium control)/(LumNon-treated−LumMedium control)×100%.
Absolute IC50 (EC50) was calculated according to the dose-response curve generated by the statistical software (GraphPad Prism 5.0).

## N.N.[Cl][Pt][Cl] [Cisplatin, reference compound]
22Rv1 cells, 96 h
  IC50: 3050 nM
769-P cells, 96 h
  IC50: 970 nM
786-O cells, 96 h
  IC50: 1430 nM
8505C
  IC50: 2010 nM
A3/KAW cells, 96 h
  IC50: 930 nM
A253 cells, 96 h
  IC50: 1240 nM
A498 cells, 96 h
  IC50: 4280 nM
A549 cells, 96 h
  IC50: 4350 nM
A875 cells, 96 h
  IC50: 1860 nM
A2058, 96 h
  IC50: 770 nM
A2780 cells, 96 h
  IC50: 1380 nM
A2780cis cells, 96 h
  IC50: 5550 nM
A-172 cells, 96 h
  IC50: 8580 nM
A-204 cells, 96 h
  IC50: 1050 nM
A-375, 96 h
  IC50: 1040 nM
A-427 cells, 96 h
  IC50: 5780 nM
A-431, 96 h
  IC50: 2070 nM
A-673 cells, 96 h
  IC50: 260 nM
ACHN cells, 96 h
  IC50: 1740 nM
AGS cells, 96 h
  IC50: 4990 nM
AMO-1 cells, 96 h
  IC50: 1920 nM
AN3 CA, 96 h
  IC50: 3000 nM
ASH-3 cells, 96 h
  IC50: 2720 nM
AsPC-1 cells, 96 h
  % inhibition at top conc.: 78.18%
  IC50: 4940 nM
BT474 cells, 96 h
  IC50: 59000 nM
BT-20 cells, 96 h
  IC50: 2150 nM
BT-483
  % inhibition at top conc.: 75.40%
  IC50: 48200 nM
BT-549 cells, 96 h
  IC50: 4700 nM
BxPC-3
  IC50: 1270 nM
C4-2, 96 h
  IC50: 14900 nM
C666-1 cells, 96 h
  % inhibition at top conc.: 73.03%
  IC50: 18100 nM
C-33 A cells, 96 h
  IC50: 920 nM
CADO-ES1
  IC50: 1030 nM
CAL-27 cells, 96 h
  IC50: 890 nM
CAL-120
  IC50: 7910 nM
CAMA-1, 96 h
  IC50: 9440 nM
CCK-81 cells, 96 h
  IC50: 4510 nM
CCRF-CEM
  IC50: 550 nM
CFPAC-1
  IC50: 4130 nM
COLO 205, 96 h
  IC50: 1970 nM
COLO 320DM, 96 h
  IC50: 3180 nM
COV644 cells, 96 h
  IC50: 14200 nM
Ca Ski cells, 96 h
  IC50: 6440 nM
Caki-2
  IC50: 3350 nM
Calu-1
  IC50: 4770 nM
Calu-3, 96 h
  % inhibition at top conc.: 77.35%
  IC50: 350 nM
Calu-6
  IC50: 710 nM
Caov-3 cells, 96 h
  IC50: 3610 nM
Capan-1
  IC50: 680 nM
Capan-2
  IC50: 21900 nM
CoC1/DDP cells, 96 h
  IC50: 5780 nM
CoC1 cells, 96 h
  IC50: 3240 nM
DLD-1
  IC50: 2430 nM
DMS 53 cells, 96 h
  IC50: 2850 nM
DMS 79
  IC50: 810 nM
DMS 114 cells, 96 h
  IC50: 2020 nM
DOHH-2 cells, 96 h
  IC50: 190 nM
DU 145, 96 h
  IC50: 1150 nM
DU4475
  IC50: 1350 nM
DV-90 cells, 96 h
  IC50: 3250 nM
Daoy cells, 96 h
  IC50: 390 nM
Daudi cells, 96 h
  IC50: 210 nM
Detroit 562 cells, 96 h
  IC50: 1350 nM
DoTc2 4510 cells, 96 h
  IC50: 2840 nM
EBC-1, 96 h
  IC50: 4610 nM
EFM-192A, 96 h
  IC50: 11300 nM
EJM cells, 96 h
  IC50: 6740 nM
EOL-1
  IC50: 460 nM
ES-2 cells, 96 h
  IC50: 3510 nM
FTC-133
  IC50: 980 nM
G-292 clone A141B1 cells, 96 h
  IC50: 1110 nM
GTL-16 cells, 96 h
  IC50: 1090 nM
H4 cells, 96 h
  IC50: 2260 nM
HBL-1
  IC50: 1210 nM
HCC38
  IC50: 2860 nM
HCC 94 cells, 96 h
  IC50: 1980 nM
HCC827 cells, 96 h
  IC50: 8580 nM
HCC1187 cells, 96 h
  IC50: 2010 nM
HCC1428
  IC50: 34900 nM
HCC1500
  IC50: 7640 nM
HCC1569
  IC50: 5780 nM
HCC1806 cells, 96 h
  IC50: 2230 nM
HCC1937
  IC50: 5070 nM
HCC1954
  IC50: 7180 nM
HCC2218, 96 h
  IC50: 10800 nM
HCC2935
  IC50: 51700 nM
HCC4006, 96 h
  IC50: 5760 nM
HCC-78 cells, 96 h
  IC50: 2250 nM
HCCC-9810
  IC50: 2960 nM
HCCLM3 cells, 96 h
  % inhibition at top conc.: 60.88%
  IC50: 10800 nM
HCT-8
  IC50: 9040 nM
HCT-15
  IC50: 3260 nM
HCT-116
  IC50: 4030 nM
HEC-1-A cells, 96 h
  % inhibition at top conc.: 83.97%
  IC50: 13300 nM
HEC-1-B cells, 96 h
  IC50: 10600 nM
HEL 92.1.7
  IC50: 480 nM
HGC-27 cells, 96 h
  IC50: 770 nM
HL-60
  IC50: 1150 nM
HLE cells, 96 h
  IC50: 2480 nM
HM-7, 96 h
  IC50: 6260 nM
HPAC
  IC50: 14300 nM
HT-3 cells, 96 h
  IC50: 4850 nM
HT-29
  IC50: 2890 nM
HT-55
  IC50: 17700 nM
HT-1080, 96 h
  IC50: 3530 nM
HT-1376
  IC50: 3280 nM
HeLa 229 cells, 96 h
  IC50: 7250 nM
HeLa cells, 96 h
  IC50: 280 nM
Hep3B
  IC50: 3080 nM
Hep G2/C3A, 96 h
  IC50: 1840 nM
Hep G2
  IC50: 4510 nM
HuCCT1, 96 h
  IC50: 10000 nM
HuT 78
  IC50: 500 nM
IHH-4 cells, 96 h
  IC50: 2650 nM
IM95m cells, 96 h
  IC50: 8430 nM
IMR-32 cells, 96 h
  IC50: 60 nM
Ishikawa, 96 h
  IC50: 2750 nM
J82 cells, 96 h
  IC50: 310 nM
JAR
  IC50: 610 nM
JEG-3 cells, 96 h
  IC50: 520 nM
JHH-1 cells, 96 h
  IC50: 6040 nM
JHH-4 cells, 96 h
  IC50: 1070 nM
JHH-5 cells, 96 h
  IC50: 850 nM
JHH-7 cells, 96 h
  IC50: 1830 nM
JIMT-1 cells, 96 h
  IC50: 6960 nM
JJN-3 cells, 96 h
  IC50: 4080 nM
JVM-2
  IC50: 1460 nM
JVM-3
  IC50: 1120 nM
JVM-13
  IC50: 540 nM
JeKo-1 cells, 96 h
  IC50: 1360 nM
Jurkat clone E6-1
  IC50: 470 nM
K-562
  IC50: 5730 nM
KARPAS-299 cells, 96 h
  IC50: 890 nM
KARPAS-422
  IC50: 1110 nM
KATO III, 96 h
  % inhibition at top conc.: 67.05%
  IC50: 10500 nM
KG-1
  IC50: 2020 nM
KHOS/NP cells, 96 h
  IC50: 1330 nM
KMH-2 cells, 96 h
  IC50: 2650 nM
KMS-11
  IC50: 2160 nM
KP4 cells, 96 h
  IC50: 6250 nM
KPL-4
  IC50: 1370 nM
KYSE-70
  IC50: 6110 nM
KYSE-150
  IC50: 1790 nM
KYSE-270
  IC50: 2150 nM
KYSE-410 cells, 96 h
  IC50: 13400 nM
Kasumi-1
  IC50: 2920 nM
L-82
  IC50: 1160 nM
L-363
  IC50: 1830 nM
LN-18 cells, 96 h
  IC50: 700 nM
LN-229 cells, 96 h
  IC50: 7680 nM
LNCaP clone FGC, 96 h
  IC50: 3430 nM
LP-1
  IC50: 7620 nM
LS123 cells, 96 h
  IC50: 12000 nM
LS 180
  IC50: 6270 nM
LS411N
  IC50: 15100 nM
LS513 cells, 96 h
  IC50: 2810 nM
LS1034 cells, 96 h
  IC50: 6520 nM
Li-7
  IC50: 630 nM
LoVo
  IC50: 8270 nM
M059K cells, 96 h
  IC50: 2660 nM
MC/CAR cells, 96 h
  IC50: 3150 nM
MCF7
  IC50: 11800 nM
MDA-MB-231
  IC50: 23000 nM
MDA-MB-415
  IC50: 37900 nM
MDA-MB-436, 96 h
  IC50: 500 nM
MDA-MB-453
  IC50: 4860 nM
MDA-MB-468 cells, 96 h
  IC50: 270 nM
ME-180 cells, 96 h
  IC50: 840 nM
MEG-01
  IC50: 1900 nM
MES-SA cells, 96 h
  IC50: 660 nM
MES-SA/DX5 cells, 96 h
  IC50: 2770 nM
MFE-296 cells, 96 h
  IC50: 3310 nM
MHCC97-H
  % inhibition at top conc.: 83.30%
  IC50: 7890 nM
MIA PaCa-2
  IC50: 2740 nM
MKN1 cells, 96 h
  IC50: 1460 nM
MKN45, 96 h
  IC50: 5470 nM
MKN74 cells, 96 h
  % inhibition at top conc.: 84.20%
  IC50: 11200 nM
ML-2
  IC50: 1210 nM
MM.1R
  IC50: 810 nM
MM.1S
  IC50: 1020 nM
MOLM-13 cells, 96 h
  IC50: 780 nM
MOLM-16 cells, 96 h
  IC50: 870 nM
MOLP8 cells, 96 h
  IC50: 1750 nM
MS751 cells, 96 h
  IC50: 4610 nM
